Reference: patent US8088749B2, “Compositions and methods for treating cancer” (The Regents of the University of Michigan, priority 2007, dated 2012)

How the values were obtained:
Assay type in all cases: cell-based, human
H2AX = H2AX phosphorylation after gemcitabine, Panc-1 cells; conditions: control Panc-1 cells, gemcitabine 50 uM
Excerpt: […] Top, flowcytometric analysis of γH2AX and propidium iodide staining of DNA content. […] Bottom, comparison of the total DNA content of the population (black) versus the γH2AX-positive fraction (green). Results are representative 3 separate experiments.

ATDC [1] = test: ATDC phosphorylation in transfected HEK293 cells
Description: (B) Knockdown of ATM by specific ATM shRNA prevents IR induced phosphorylation of ATDC in Panc1 cells (n=3). (C) IR-dependent phosphorylation of ATDC occurs at serine 550. HEK 293 cells over-expressing wild type or S550A mutant ATDC were treated with IR (10 Gy) for varyin times (0-60 min). Cell lysates were harvested and co-immunoprecipitation experiments were performed using anti-ATDC and anti-phospho-serine/threonine antibodies. Results are representative of three separate experiments (D) Gemcitabine induces phosphorylation of ATDC in transfected HEK293 cells.
ATDC has overlapping function with ATM in cell cycle checkpoint activation and that trafficking of ATDC to DNA repair foci was dependent on ATM (see, e.g., FIGS. 4,6,7,8). ATDC had been shown previously to undergo phosphorylation on serine/threonine in A431 cells (see, e.g., Laderoute K R, et al., Int J Cancer 1996; 66: 772-778). It was hypothesized therefore that ATDC is a phosphorylation target of ATM and ATR. It is known that phosphorylation targets of ATM/ATR share a common motif, with either a serine or threonine residue, usually followed by a glutamine (the SQ or TQ motif) (see, e.g., Ziv Y, et al., Nature Cell Biol 2006; 8: 870-876). […] It was verified that ATDC functioned downstream of ATM, since silencing of ATDC had no effect on the phosphorylation of ATM in response to IR (FIG. 11A). […]

ATDC [2] = test: ATDC nuclear foci by immunofluorescence after gemcitabine, Panc-1 cells; conditions: gemcitabine (amount/time); 50 uM
Excerpt: (A). Panc1 cells exposed to IR (5 Gy, 1 hr) were fixed and costained with anti-ATDC (red) and anti-γH2AX (green) antibodies. […] Cell nuclei were counterstained with DAPI (blue). (B) Panc-1 cells exposed to IR (5 Gy, 1 hr) and co-immunostained with anti-ATDC antibody (red) and anti-p-ATM antibody (green). Co-localization of ATDC (red) with p-ATM (green) is observed in yellow in the merged image. Experiments were repeated twice with similar results. […] Results representative of 3 separate experiments.
It has been well-documented that in response to DNA damage, numerous proteins involved in the DNA damage response traffic to discrete nuclear foci. […] Using double immunofluorescence staining, it was observed that ATDC co-localized with γH2AX (FIG. 7A), presumably at DNA damage foci. […] ATDC co-localized with ATR following gemcitabine treatment (FIG. 7B). The time course of ATDC localizing to DNA damage foci was similar to the time course of the formation of foci of phosphorylated H2AX. Whether ATDC is required for the formation of γH2AX and/or ATR foci in pancreatic cancer cells following gemcitabine was investigated.

p53 and Chk1 = test: Phosphorylation of p53 and Chk1 in response to gemcitabine, Panc-1 cells; conditions: gemcitabine 10 μM; control shRNA Panc-1 cells
Description: To further investigate the role of ATDC in the DNA damage response, the effect of silencing ATDC on phosphorylation of p53 and Chk1 was investigated. In response to gemcitabine (10 μM), replication forks stall and the ATR signaling cascade is activated, which phosphorylates and activates several proteins critical to inducing the G1-S cell cycle checkpoint, including p53 and Chk1 (see, e.g., Ljungman M, Mutation Res 2005; 577: 203-216).

Structure (SMILES): Nc1ccn([C@@H]2O[C@H](CO)[C@@H](O)C2(F)F)c(=O)n1 [gemcitabine]
- time of induction of H2AX phosphorylation (H2AX): ≤ 10 min
- time of return of H2AX phosphorylation to basal levels (H2AX): 1 h
- H2AX phosphorylation (H2AX; x hours): transient H2AX phosphorylation
- phosphorylation of ATDC (ATDC [1]): induces
- ATDC nuclear foci formation (ATDC [2]): ATDC formed discrete nuclear foci
- phosphorylation of p53 and Chk1 (p53 and Chk1): underwent phosphorylation
